Experimental data: patent US20050192371A1, “Preparation and use of photopolymerized microparticles” (priority 1998, published 2005)

Experiments:
[1] = Release of Rose Bengal from MSA disks versus mass fraction degraded; type: physicochemical; settings: FIG. 14; homogeneous and heterogeneous MSA disks, 10 ml PBS, 37° C., absorbance 550 nm
Description: Crosslinked particles containing Rose Bengal were incorporated in a MSA matrix and polymerized into disks. Rose Bengal was also homogeneously incorporated into another set of MSA disks and polymerized. Advantages of using a particle-polymer composite include multi-mode degradation and release possible through the use of different biocompatible polymers and drugs, ease of control of surface degradation, and in one particular application, bone growth is facilitated by the resulting porous structures.
Disk samples were 0.25 to 0.3 grams, 13 mm diameter and 1.5 mm thick. Disks were placed in 10 ml of PBS buffer at 37° C. to monitor the degradation.
The absorbance of Rose Bengal was measured at 550 nm, and the disks were weighed to monitor the degradation.

[2] = Drug release / degradation of PMSA microparticles in phosphate-buffered saline; type: physicochemical; settings: FIG. 13; tacrine absorbance at 322 nm, Rose Bengal at 550 nm
Experimental: The centrifuge tube was shaken to disperse the particles throughout the solution and placed in a 37° C. temperature bath for 3 minutes. The tube was then immediately centrifuged, and the buffer was drawn off and analyzed for drug concentration. The centrifuge tube was refilled with 37° C. PBS, and the cycle was repeated for about 3 hours. The tubes remained in the temperature bath for 3 minutes for the first hour, and 5-10 minutes for the remainder of the time data was collected. UV-Vis spectrophotrometry (Model 8452, Hewlett Packard) was used to determine the concentration of tacrine (absorbance was measured at 322 nm) in experiment samples.
Drug release experiments illustrate the release properties of the microparticles formed in the photopolymerization PCA process. […] The Rose Bengal release profile is also affected by photobleaching of particles in room light. This may explain the lag time at the beginning of the Rose Bengal release in FIG. 13.

Compound | release behavior as a function of the mass fraction of the disks degraded [1] | release profile from PMSA particles into PBS buffer [2]
O=C([O-])c1c(Cl)c(Cl)c(Cl)c(Cl)c1-c1c2cc(I)c(=O)c(I)c-2oc2c(I)c([O-])c(I)cc12.[Na+].[Na+] [Rose Bengal] | linear relationship between degradation and release | some influence of diffusion in the release
Nc1c2c(nc3ccccc13)CCCC2 [tacrine, 9-amino-1,2,3,4-tetrahydroacridine] | – | follows the curve for surface erosion of a sphere
